Reference: PMC11866408, “LOPAC library screening identifies suramin as a TRIM21 binder with a unique binding mode revealed by crystal structure” (Acta Crystallographica Section F: Structural Biology …, 2025)

Columns and labels:
[1] = biological target: T1, TRIM21 PRYSPRY domain (mouse) (Mus musculus, UniProt Q62191); test: co-crystal structure at […] Å; ITC; format: binding
T1 construct: PRYSPRY domain, residues Val291–Met470, N-terminal His6-tag
T1 sequence (Q62191 291-470): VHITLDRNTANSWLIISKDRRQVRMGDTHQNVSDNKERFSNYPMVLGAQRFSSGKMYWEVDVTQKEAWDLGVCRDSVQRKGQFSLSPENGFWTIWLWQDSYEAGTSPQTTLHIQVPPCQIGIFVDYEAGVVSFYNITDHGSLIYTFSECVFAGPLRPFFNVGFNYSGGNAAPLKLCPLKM

[2] = biological target: T2, TRIM21 PRYSPRY domain (human) (Homo sapiens, UniProt P19474); test: ITC; DSF shift […] K; format: binding
T2 construct: PRYSPRY domain, residues Val287–Leu465, His6-SUMO tag cleaved
T2 sequence (P19474 287-465): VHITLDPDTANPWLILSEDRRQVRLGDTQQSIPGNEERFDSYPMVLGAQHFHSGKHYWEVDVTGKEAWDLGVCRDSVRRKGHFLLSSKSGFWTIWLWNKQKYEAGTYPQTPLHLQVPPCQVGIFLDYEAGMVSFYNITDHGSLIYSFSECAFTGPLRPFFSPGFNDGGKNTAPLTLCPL

Kd [1]: ~9 µM | Kd [2]: ~8 µM
Compound: Cc1ccc(C(=O)Nc2ccc(S(=O)(=O)O)c3cc(S(=O)(=O)O)cc(S(=O)(=O)O)c23)cc1NC(=O)c1cccc(NC(=O)Nc2cccc(C(=O)Nc3cc(C(=O)Nc4ccc(S(=O)(=O)O)c5cc(S(=O)(=O)O)cc(S(=O)(=O)O)c45)ccc3C)c2)c1 [suramin]
